By EC50 is commonly meant the concentration at which the effect is half-maximal.

One assay relates to HCV pseudoparticles (genotype 1a HCV E1 and E2 envelope, H77C isolate). Kind of assay: microbe, parasite or virus in culture. In kind it is cell-based. The conditions noted are these: Hepatitis C virus, Huh-7, 48 h, HCV pseudoparticles (genotype 1a, H77C) in Huh7 cells; average of duplicate; luciferase 2 days after infection.
For the compound `CC(C)(CNC(=O)C(=O)Nc1ccc(C(=O)c2ccc(NC(=O)CCCCCNC(=O)CCCC[C@H]3SC[C@@H]4NC(=O)N[C@@H]43)cc2)cc1)CNC(=O)c1ccc(Nc2nc(NC3(c4ccc(Cl)cc4)CC3)nc(OCC(F)(F)F)n2)cc1` [Compound 3558], the EC50 is 0.26 nM.

The compound `CC(C)(CNC(=O)C(=O)Nc1ccc(OC(F)F)cc1)CNC(=O)c1ccc(Nc2nc(NC3(c4ccc(Cl)cc4)CC3)nc(OCC(F)(F)F)n2)cc1F` [Compound 3562] had an EC50 of 0.018 nM. The same measure, in the same setting: the value for `Cn1ccc(NC(=O)C(=O)NCC(C)(C)CNC(=O)c2ccc(Nc3nc(NC4(c5ccc(Cl)cc5)CC4)nc(OCC(F)(F)F)n3)cc2F)n1` [Compound 3567] was 0.035 nM; that for `COC(=O)[C@@H](CCNC(=O)C(=O)Nc1cccc(OC(F)(F)F)c1)NC(=O)c1ccc(Nc2nc(NC3(c4ccc(Cl)cc4)CC3)nc(OCC(F)(F)F)n2)cc1` [Compound 3577] was 0.16 nM; that for `COC(=O)[C@@H](CCNC(=O)C(=O)Nc1ccc(Oc2cccnc2)nc1)NC(=O)c1ccc(Nc2nc(NC3(c4ccc(Cl)cc4)CC3)nc(OCC(F)(F)F)n2)cc1` [Compound 3582] was 8.95 nM. Consider `COC(=O)/C(CCNC(=O)C(=O)Nc1ccc(C)nc1)=N\C(=O)c1ccc(Nc2nc(NC3(c4ccc(Cl)cc4)CC3)nc(OCC(F)(F)F)n2)cc1` [Compound 3590], for which a half-maximal response (EC50) required 0.16 nM.

`COC(=O)/C(CCNC(=O)C(=O)Nc1cncc(-c2nncn2C)c1)=N\C(=O)c1ccc(Nc2nc(NC3(c4ccc(Cl)cc4)CC3)nc(OCC(F)(F)F)n2)cc1` [Compound 3597] returned an EC50 of 3.05 nM.

Staying with this assay, now noted: Hepatitis C virus, Huh-7, 48 h, read-out: Activity (EC50 class), HCV pseudoparticles, Huh7 cells, luciferase 2 days after infection; average of duplicates.
As for `COC(=O)[C@H](CCNC(=O)C(=O)Nc1cccc(-c2ccc(Cl)cc2)c1)NC(=O)c1ccc(Nc2nc(NC3(c4ccc(Cl)cc4)CC3)nc(OCC(F)(F)F)n2)cc1` [Compound 3599], the EC50 lay in the range of 0.01 to 10 nM.

Staying with this assay, now noted: Hepatitis C virus, Huh-7, read-out: Activity (EC50 class), HCV pseudoparticles (genotype 1a, H77C) in Huh7 cells; EC50 expressed as class A/B.
Consider `CC(C)(CNC(=O)C(=O)Nc1ccccc1-c1ccccc1)CNC(=O)c1ccc(Nc2nc(NC3(c4ccc(Cl)cc4)CC3)nc(OCC(F)(F)F)n2)cc1F` [Compound 3556], for which the EC50 lay in the range of 0.01 to 10 nM. The same measure, in the same setting: the value for `COc1ccc(NC(=O)C(=O)NCC(C)(C)CNC(=O)c2ccc(Nc3nc(NC4(c5ccc(Cl)cc5)CC4)nc(OCC(F)(F)F)n3)cc2F)cc1` [Compound 3557] was 0.01 to 10 nM; that for `CC(C)(CNC(=O)C(=O)Nc1ccc(C(=O)c2ccc(NC(=O)CCCCCNC(=O)CCCC[C@H]3SC[C@@H]4NC(=O)N[C@@H]43)cc2)cc1)CNC(=O)c1ccc(Nc2nc(NC3(c4ccc(Cl)cc4)CC3)nc(OCC(F)(F)F)n2)cc1` [Compound 3558] was 0.01 to 10 nM; that for `CC(C)(CNC(=O)C(=O)Nc1ccc(OC(F)(F)F)cc1)CNC(=O)c1ccc(Nc2nc(NC3(c4ccc(Cl)cc4)CC3)nc(OCC(F)(F)F)n2)cc1F` [Compound 3559] was 0.01 to 10 nM. Regarding `COc1ccc(NC(=O)C(=O)NCC(C)(C)CNC(=O)c2ccc(Nc3nc(NC4(c5ccc(Cl)cc5)CC4)nc(OCC(F)(F)F)n3)cc2F)c(OC)c1` [Compound 3560], the EC50 was 0.01 to 10 nM. Still for that read-out and setting: the value for `CC(C)(CNC(=O)C(=O)Nc1ccc(OC(F)F)cc1)CNC(=O)c1ccc(Nc2nc(NC3(c4ccc(Cl)cc4)CC3)nc(OCC(F)(F)F)n2)cc1F` [Compound 3562] was 0.01 to 10 nM; that for `COc1cccc(-c2ccc(NC(=O)C(=O)NCC(C)(C)CNC(=O)c3ccc(Nc4nc(NC5(c6ccc(Cl)cc6)CC5)nc(OCC(F)(F)F)n4)cc3F)cc2)c1` [Compound 3563] was 0.01 to 10 nM; that for `CC(C)(CNC(=O)C(=O)Nc1ccc(/C=C/c2ccccc2)cc1)CNC(=O)c1ccc(Nc2nc(NC3(c4ccc(Cl)cc4)CC3)nc(OCC(F)(F)F)n2)cc1F` [Compound 3564] was 0.01 to 10 nM. Turning to `Cc1noc2ccc(NC(=O)C(=O)NCC(C)(C)CNC(=O)c3ccc(Nc4nc(NC5(c6ccc(Cl)cc6)CC5)nc(OCC(F)(F)F)n4)cc3F)cc12` [Compound 3565], the EC50 lay in the range of 0.01 to 10 nM.

Consider `CC(C)(CNC(=O)C(=O)Nc1ccc2ncsc2c1)CNC(=O)c1ccc(Nc2nc(NC3(c4ccc(Cl)cc4)CC3)nc(OCC(F)(F)F)n2)cc1F` [Compound 3566], for which the EC50 is 0.01 to 10 nM. On the same count and under the same terms, the value for `Cn1ccc(NC(=O)C(=O)NCC(C)(C)CNC(=O)c2ccc(Nc3nc(NC4(c5ccc(Cl)cc5)CC4)nc(OCC(F)(F)F)n3)cc2F)n1` [Compound 3567] was 0.01 to 10 nM; that for `CC(C)(CNC(=O)C(=O)Nc1nc2ccccc2s1)CNC(=O)c1ccc(Nc2nc(NC3(c4ccc(Cl)cc4)CC3)nc(OCC(F)(F)F)n2)cc1F` [Compound 3568] was 0.01 to 10 nM; that for `COC(=O)[C@@H](CCNC(=O)C(=O)Nc1ccc(OCCC2C(=O)c3ccccc3C2=O)nc1)NC(=O)c1ccc(Nc2nc(NC3(c4ccc(Cl)cc4)CC3)nc(OCC(F)(F)F)n2)cc1` [Compound 3569] was 0.01 to 10 nM. Same read-out and setting: the value for `COC(=O)[C@@H](CCNC(=O)C(=O)Nc1ccc(Cl)nc1)NC(=O)c1ccc(Nc2nc(NC3(c4ccc(Cl)cc4)CC3)nc(OCC(F)(F)F)n2)cc1` [Compound 3570] was 0.01 to 10 nM. Still for that read-out and setting: the value for `COC(=O)[C@@H](CCNC(=O)C(=O)Nc1cccc(OCc2ccccc2)c1)NC(=O)c1ccc(Nc2nc(NC3(c4ccc(Cl)cc4)CC3)nc(OCC(F)(F)F)n2)cc1` [Compound 3571] was 0.01 to 10 nM. Turning to `COC(=O)[C@@H](CCNC(=O)C(=O)Nc1cccc(C)c1)NC(=O)c1ccc(Nc2nc(NC3(c4ccc(Cl)cc4)CC3)nc(OCC(F)(F)F)n2)cc1` [Compound 3572], the EC50 was in the range of 0.01 to 10 nM.

Take `CCc1cccc(NC(=O)C(=O)NCC[C@@H](NC(=O)c2ccc(Nc3nc(NC4(c5ccc(Cl)cc5)CC4)nc(OCC(F)(F)F)n3)cc2)C(=O)OC)c1` [Compound 3573]: the EC50 fell in the range of 0.01 to 10 nM. Still for that read-out and setting: the value for `C=Cc1cccc(NC(=O)C(=O)NCC[C@@H](NC(=O)c2ccc(Nc3nc(NC4(c5ccc(Cl)cc5)CC4)nc(OCC(F)(F)F)n3)cc2)C(=O)OC)c1` [Compound 3574] was 0.01 to 10 nM. As for `COC(=O)[C@@H](CCNC(=O)C(=O)Nc1cccc(C(=O)Nc2ccccc2)c1)NC(=O)c1ccc(Nc2nc(NC3(c4ccc(Cl)cc4)CC3)nc(OCC(F)(F)F)n2)cc1` [Compound 3575], the EC50 is 0.01 to 10 nM.

As to `COC(=O)[C@@H](CCNC(=O)C(=O)Nc1cccc(C(=O)c2ccccc2)c1)NC(=O)c1ccc(Nc2nc(NC3(c4ccc(Cl)cc4)CC3)nc(OCC(F)(F)F)n2)cc1` [Compound 3576], the EC50 lay in the range of 0.01 to 10 nM. With `COC(=O)[C@@H](CCNC(=O)C(=O)Nc1cccc(OC(F)(F)F)c1)NC(=O)c1ccc(Nc2nc(NC3(c4ccc(Cl)cc4)CC3)nc(OCC(F)(F)F)n2)cc1` [Compound 3577], the EC50 was in the range of 0.01 to 10 nM. Take `COC(=O)[C@@H](CCNC(=O)C(=O)Nc1cccc(Oc2ccccc2)c1)NC(=O)c1ccc(Nc2nc(NC3(c4ccc(Cl)cc4)CC3)nc(OCC(F)(F)F)n2)cc1` [Compound 3578]: the EC50 fell in the range of 0.01 to 10 nM. Same read-out and setting: the value for `COC(=O)[C@@H](CCNC(=O)C(=O)Nc1cccc(-c2cnco2)c1)NC(=O)c1ccc(Nc2nc(NC3(c4ccc(Cl)cc4)CC3)nc(OCC(F)(F)F)n2)cc1` [Compound 3579] was 0.01 to 10 nM; that for `COC(=O)[C@@H](CCNC(=O)C(=O)Nc1ccc(Oc2ccc(Cl)cc2Cl)nc1)NC(=O)c1ccc(Nc2nc(NC3(c4ccc(Cl)cc4)CC3)nc(OCC(F)(F)F)n2)cc1` [Compound 3580] was 10 to 1000 nM. With `COC(=O)[C@@H](CCNC(=O)C(=O)Nc1ccc(Oc2ccc(C(C)(C)C)cc2)nc1)NC(=O)c1ccc(Nc2nc(NC3(c4ccc(Cl)cc4)CC3)nc(OCC(F)(F)F)n2)cc1` [Compound 3581], the concentration for a half-maximal effect (EC50) was 0.01 to 10 nM. In the case of `COC(=O)[C@@H](CCNC(=O)C(=O)Nc1ccc(Oc2cccnc2)nc1)NC(=O)c1ccc(Nc2nc(NC3(c4ccc(Cl)cc4)CC3)nc(OCC(F)(F)F)n2)cc1` [Compound 3582], the EC50 lay within 0.01 to 10 nM. The same measure, in the same setting: the value for `COC(=O)[C@@H](CCNC(=O)C(=O)Nc1cccc(-c2ccnc(C)n2)c1)NC(=O)c1ccc(Nc2nc(NC3(c4ccc(Cl)cc4)CC3)nc(OCC(F)(F)F)n2)cc1` [Compound 3583] was 0.01 to 10 nM. For the compound `COC(=O)/C(CCNC(=O)C(=O)NC1CCCC(S(=O)(=O)c2ccccc2)C1)=N\C(=O)c1ccc(Nc2nc(NC3(c4ccc(Cl)cc4)CC3)nc(OCC(F)(F)F)n2)cc1` (centres unmarked) [Compound 3584], the EC50 is 10 to 1000 nM. In the case of `COC(=O)/C(CCNC(=O)C(=O)Nc1ccc(N2CCOCC2)nc1)=N\C(=O)c1ccc(Nc2nc(NC3(c4ccc(Cl)cc4)CC3)nc(OCC(F)(F)F)n2)cc1` [Compound 3585], the EC50 lay within 0.01 to 10 nM. In the case of `COC(=O)/C(CCNC(=O)C(=O)Nc1cccc(C(C)(C)C)c1)=N\C(=O)c1ccc(Nc2nc(NC3(c4ccc(Cl)cc4)CC3)nc(OCC(F)(F)F)n2)cc1` [Compound 3586], the EC50 lay in the range of 0.01 to 10 nM. In the case of `COC(=O)/C(CCNC(=O)C(=O)Nc1ccc(N)nc1)=N\C(=O)c1ccc(Nc2nc(NC3(c4ccc(Cl)cc4)CC3)nc(OCC(F)(F)F)n2)cc1` [Compound 3587], the EC50 lay within 0.01 to 10 nM. On the same count and under the same terms, the value for `COC(=O)/C(CCNC(=O)C(=O)Nc1cccc(S(C)(=O)=O)c1)=N\C(=O)c1ccc(Nc2nc(NC3(c4ccc(Cl)cc4)CC3)nc(OCC(F)(F)F)n2)cc1` [Compound 3588] was 0.01 to 10 nM. On the same count and under the same terms, the value for `COC(=O)/C(CCNC(=O)C(=O)Nc1cccc(S(=O)(=O)C(F)(F)F)c1)=N\C(=O)c1ccc(Nc2nc(NC3(c4ccc(Cl)cc4)CC3)nc(OCC(F)(F)F)n2)cc1` [Compound 3589] was 0.01 to 10 nM. As for `COC(=O)/C(CCNC(=O)C(=O)Nc1ccc(C)nc1)=N\C(=O)c1ccc(Nc2nc(NC3(c4ccc(Cl)cc4)CC3)nc(OCC(F)(F)F)n2)cc1` [Compound 3590], the EC50 lay within 0.01 to 10 nM. On the same count and under the same terms, the value for `COC(=O)/C(CCNC(=O)C(=O)Nc1cccc(-c2ccncc2)c1)=N\C(=O)c1ccc(Nc2nc(NC3(c4ccc(Cl)cc4)CC3)nc(OCC(F)(F)F)n2)cc1` [Compound 3591] was 0.01 to 10 nM. The same measure, in the same setting: the value for `COC(=O)/C(CCNC(=O)C(=O)Nc1cccc(Cc2ccccc2)c1)=N\C(=O)c1ccc(Nc2nc(NC3(c4ccc(Cl)cc4)CC3)nc(OCC(F)(F)F)n2)cc1` [Compound 3592] was 10 to 1000 nM; that for `COC(=O)/C(CCNC(=O)C(=O)Nc1ccc(Oc2ccccc2)nc1)=N\C(=O)c1ccc(Nc2nc(NC3(c4ccc(Cl)cc4)CC3)nc(OCC(F)(F)F)n2)cc1` [Compound 3593] was 0.01 to 10 nM. Take `COC(=O)/C(CCNC(=O)C(=O)Nc1ccc(C(F)(F)F)nc1)=N\C(=O)c1ccc(Nc2nc(NC3(c4ccc(Cl)cc4)CC3)nc(OCC(F)(F)F)n2)cc1` [Compound 3594]: the EC50 lay in the range of 0.01 to 10 nM. For the compound `COC(=O)/C(CCNC(=O)C(=O)Nc1cccc(S(=O)(=O)C2CCCCC2)c1)=N\C(=O)c1ccc(Nc2nc(NC3(c4ccc(Cl)cc4)CC3)nc(OCC(F)(F)F)n2)cc1` [Compound 3595], the EC50 fell in the range of 0.01 to 10 nM. On the same count and under the same terms, the value for `COC(=O)/C(CCNC(=O)C(=O)Nc1cccc(-c2csc(C)n2)c1)=N\C(=O)c1ccc(Nc2nc(NC3(c4ccc(Cl)cc4)CC3)nc(OCC(F)(F)F)n2)cc1` [Compound 3596] was 0.01 to 10 nM; that for `COC(=O)/C(CCNC(=O)C(=O)Nc1cncc(-c2nncn2C)c1)=N\C(=O)c1ccc(Nc2nc(NC3(c4ccc(Cl)cc4)CC3)nc(OCC(F)(F)F)n2)cc1` [Compound 3597] was 0.01 to 10 nM; that for `COC(=O)/C(CCNC(=O)C(=O)Nc1ccc(OCCN2CCCCC2)nc1)=N\C(=O)c1ccc(Nc2nc(NC3(c4ccc(Cl)cc4)CC3)nc(OCC(F)(F)F)n2)cc1` [Compound 3598] was 0.01 to 10 nM.

The record behind these values is patent publication US8916702B2 (priority 2012, dated 2014).
